Test results: patent publication US10206398B2, “Five-membered C-N-attached aryl sulphide and aryl sulphoxide derivatives as pesticides” (BAYER CROPSCIENCE AKTIENGESELLSCHAFT, priority 2014, dated 2019)
Like-named read-outs stand apart in the source and are kept apart here.

Tests used:
[1] = log P determination by HPLC on reversed-phase columns (C 18), analogous to OECD Guideline 117; type: physicochemical; details: for logP[a]: method [a]; for logP[b]: method [b]; for chromatographic logP: reversed-phase HPLC column (C 18)
Summary of the method: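 Reversed-phase C18 HPLC per OECD 117, two conditions: [a] pH 2.7, 0.1% formic acid water/acetonitrile, log P(HCOOH); [b] pH 7.8, 0.001 M ammonium hydrogencarbonate/acetonitrile, log P(neutral). Both use a 10–95% acetonitrile gradient; values are interpolated from retention times against C3–C16 unbranched alkan-2-ones.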

Boophilus microplus = Boophilus microplus - injection test; type: in vivo; details: 20 μg/animal, injection into engorged adult female cattle ticks, assessed after 7 days
Experimental: 1. Boophilus microplus—Injection Test
Solvent: dimethyl sulphoxide
To produce a suitable preparation of active compound, 10 mg of active compound are mixed with 0.5 ml of solvent and the concentrate is diluted with solvent to the desired concentration.
1 μl of the active compound solution is injected into the abdomen of 5 engorged adult female cattle ticks (Boophilus microplus). The animals are transferred into dishes and kept in a climate-controlled room.
Efficacy is assessed after 7 days by laying of fertile eggs. Eggs which are not visibly fertile are stored in a climate-controlled cabinet until the larvae hatch after about 42 days. An efficacy of 100% means that none of the ticks has laid any fertile eggs; 0% means that all the eggs are fertile.

Meloidogyne incognita = Meloidogyne incognita - test; type: in vivo; details: 20 ppm, lettuce, after 14 days
Experimental: 2. Meloidogyne incognita—Test Solvent: 125.0 parts by weight of acetone To produce a suitable preparation of active compound, 1 part by weight of active compound is mixed with the stated amount of solvent and the concentrate is diluted with water to the desired concentration. Vessels are filled with sand, active compound solution, an egg/larvae suspension of the southern root-knot nematode (Meloidogyne incognita) and lettuce seeds. The lettuce seeds germinate and the plants develop. The galls develop on the roots. After 14 days, the nematicidal efficacy in % is determined by the formation of galls. 100% means that no galls were found; 0% means that the number of galls on the treated plants corresponds to the untreated control.

Tetranychus urticae = Tetranychus urticae - spray test, OP-resistant (bean leaf discs, 6 days); type: in vivo; details: 500 g/ha, after 6 days; for pest or weed control at 500 g/ha: Tetranychus urticae, foliar, 144 h, read-out: efficacy (spider mites killed)
Summary of the method: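 Bean leaf discs carrying all stages of OP-resistant Tetranychus urticae were sprayed with compound formulated in acetone/DMF and diluted in water with 1000 ppm emulsifier. Mortality was scored after 6 days as % efficacy, where 100% means all mites were killed.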

[2] = pH 2.7, HPLC, acidic range, pH 2.7, 0.1% aqueous formic acid and acetonitrile, read-out: log P(HCOOH)
[3] = pH 2.7, method [a], read-out: logP[a]
[4] = pH 7.8, HPLC, neutral range, pH 7.8, 0.001 molar aqueous ammonium hydrogencarbonate and acetonitrile, read-out: log P(neutral)
[5] = pH 7.8, method [b], read-out: logP[b]

logP[a] [1] | logP[b] [1] | chromatographic logP [1, 2] | chromatographic logP [1, 3] | chromatographic logP [1, 4] | chromatographic logP [1, 5] | Compound | efficacy (laying of fertile eggs) (Boophilus microplus) | nematicidal efficacy (formation of galls) (Meloidogyne incognita) | efficacy (spider mites killed) (Tetranychus urticae) | pest or weed control at 500 g/ha (Tetranychus urticae)
2.84 | 2.75 |  |  |  |  | Cc1cc(F)c(N2C(=O)CN(C(=O)NC(C)(C)C)C2=O)cc1[S+]([O-])CC(F)(F)F (racemic) [compound 68] | 100% | 90% | 100% | 
2.40 | 2.38 |  |  |  |  | Cc1cc(F)c(N2C(=O)CN(C(=O)NC(C)C)C2=O)cc1[S+]([O-])CC(F)(F)F (centres unmarked) [compound 10] | 100% | 100% | 100% | 
3.34 | 3.29 |  |  |  |  | Cc1cc(F)c(N2C(=O)CN(C(=O)NC(C)C)C2=O)cc1SCC(F)(F)F [Ex. No. 7] | 100% | 90% | 100% | 
2.19 | 2.13 |  |  |  |  | Cc1cc(F)c(N2C(=O)CN(C(=O)NCC3CCCO3)C2=O)cc1[S+]([O-])CC(F)(F)F (mixture of isomers) [compound 91] | 100% |  | 100% | 
2.52 | 2.45 |  |  |  |  | Cc1cc(C)c([S+]([O-])CC(F)(F)F)cc1N1C(=O)CN(C(=O)NC(C)C)C1=O (centres unmarked) [compound 23] | 100% | 100% |  | 
 |  | 2.72 | 2.72 | 2.66 | 2.66 | Cc1cc(F)c(N2C(=O)CN(C(=O)NCC(C)C)C2=O)cc1[S+]([O-])CC(F)(F)F (centres unmarked) [Ex. No. 15, 3-[2-Fluoro-4-methyl-5-(2,2,2-trifluoroethylsulphinyl)phenyl]-N-isobutyl-2,4-dioxoimidazolidine-1-carboxamide] | 100% |  |  | 100%
2.46 | 2.42 |  |  |  |  | Cc1cc(F)c(N2C(=O)C(C)N(C(=O)NC3CC3)C2=O)cc1[S+]([O-])CC(F)(F)F (centres unmarked) [compound 28] | 100% |  | 100% | 
2.75 | 2.71 |  |  |  |  | Cc1cc(F)c(N2C(=O)C(C)N(C(=O)NCC(F)(F)F)C2=O)cc1[S+]([O-])CC(F)(F)F (mixture of isomers) [compound 88] | 100% |  | 100% | 
2.66 | 2.58 |  |  |  |  | Cc1cc(Cl)c(N2C(=O)CN(C(=O)NCC(F)(F)F)C2=O)cc1[S+]([O-])CC(F)(F)F (centres unmarked) [compound 63] | 100% |  | 100% | 
 |  | 2.42 | 2.42 | 2.39 | 2.39 | CCNC(=O)N1C(=O)N(c2cc([S+]([O-])CC(F)(F)F)c(C)cc2F)C(=O)C1C (centres unmarked) [Ex. No. 27, N-Ethyl-3-[2-fluoro-4-methyl-5-(2,2,2-trifluoroethylsulphinyl)phenyl]-5-methyl-2,4-dioxoimidazolidine-1-carboxamide] | 100% |  |  | 100%
2.38 | 2.29 |  |  |  |  | Cc1cc(Cl)c(N2C(=O)CN(C(=O)NC3CC3)C2=O)cc1[S+]([O-])CC(F)(F)F (centres unmarked) [compound 62] | 100% |  | 100% | 
2.92 | 2.86 |  |  |  |  | Cc1cc(F)c(N2C(=O)CN(C(=O)Nc3ccc(F)cc3)C2=O)cc1[S+]([O-])CC(F)(F)F (centres unmarked) [compound 41] | 100% |  | 100% | 
2.77 | 2.73 |  |  |  |  | Cc1cc(F)c(N2C(=O)C(C)N(C(=O)NC(C)C)C2=O)cc1[S+]([O-])CC(F)(F)F (centres unmarked) [compound 29] | 100% |  | 100% | 
